Assay results published in patent US10517952B2, “Nucleophile-triggered degradable materials and methods of making and using the same” (GEORGIA TECH RESEARCH CORPORATION, priority 2014, dated 2019).

Key:
[1] = Oscillatory rheology of PEG-OND hydrogels; type: physicochemical; conditions: pH 7.2, 37° C., strain 1%, 1 rad/sec, after 2-3 hours
Experimental: Oscillatory rheology was used to assess the viscoelastic properties of selected PEG-OND hydrogels. […] The truncated cone was then brought in contact with the bis-EONB/4-PEG-SH mixture before setting of the gel by positioning the tool at the measuring position. The sample was inspected for spillovers and trimmed as required. A preliminary preshearing step consisting of 30 seconds at 0.1% strain and ω=0.01 rad/s was performed to ensure good contact with the gel sample. The elastic (storage) and viscous (loss) moduli, G′ and G″, respectively, were then measured as a function of time for a constant strain of 1% and an angular frequency of 1 rad/sec. The ability to store energy is described by G′, while the amount of energy dissipated is related with G″. It was observed that the sample experienced a rapid transformation from an initial state in which G′ was not much larger than G″ to a state in which G′ was clearly predominant, as shown in FIG. 5; this is consistent with gelation. The observed transformation happened in the first few minutes after preparation, even when the hydrogel continued to rigidify for up to 2-3 hours.
The linear regime of this sample was determined by performing an oscillatory strain sweep at 37° C. The frequency sweep shown in the main text was thus performed in the linear region.
[…] In both experiments, G′>>G″.

[2] = Gelation of 4-PEG-SH with OND linkers, gelation time by inversion test; type: physicochemical; conditions: neutral water, 17% DMSO, stoichiometric triethylamine added, room temperature
Experimental: PEG-OND hydrogels were prepared by mixing tetravalent thiol-terminated PEG (4-PEG-SH, Mw˜2,500 Da for each arm) at 3.5 weight percent and multivalent OND linkers at equimolar concentration of thiol and electrophile in phosphate buffer containing 7% DMSO by volume (FIG. 42). The reactions were mixed briefly and the gel was allowed to cure at temperature or 37° C. Gelation time was recorded as the point at which the sample no longer flowed upon inversion of the reaction vessel.
Trial gelations were performed by premixing a solution of linker 7a with four-armed thiol-terminated poly(ethylene glycol) (4-PEG-SH. Mn=10,000) in neutral water containing 17% DMSO by volume. The overall concentration of PEG macromer was varied from 0.4 wt % to 8.3 wt % while maintaining an equimolar ratio of thiol to electrophile. Under these conditions, no gels formed on standing at room temperature for five minutes.
Based on empirical observations made in these trials, subsequent gels were prepared at room temperature from 3.5 wt % 4-PEG-SH solutions in phosphate buffers containing 7% DMSO at equimolar concentrations of thiol and OND electrophile. Mixtures were mixed briefly with a vortex mixer, and the reaction vial was periodically tilted or inverted. Gelation time was recorded when the sample no longer flowed and was self-supporting. […] Gelation time at 37° C. was determined by pre-warming 4-PEG-SH macromer and OND stock solutions in a 37° C. water bath. Gel components were combined and mixed briefly by pipetting, and the sample was held in the water bath. Gelation time was determined by the inversion test, as described above.
The labeled protein solutions prepared as described in the previous section were diluted three-fold with pH 7.4 100 mM phosphate buffer and used to dissolve the 4-PEG-SH macromer at 3.76 wt %. This solution was used in an identical manner as pure 4-PEG-SH solution for the purpose of forming PEG-OND hydrogels (FIG. 45). All samples formed self-supporting hydrogels within 1 min after mixing, as determined by the inversion test.

| Compound | Storage modulus G′ versus loss modulus G″ [1] | 4-PEG-SH concentration giving instantaneous gelation [2] |
| --- | --- | --- |
| COC(=O)C1=C(C(=O)OC)C2(CNC(=O)CCCC(=O)NCC34OC(C(C(=O)OC)=C3C(=O)OC)C3OC34)OC1C1OC12 (centres unmarked) [Linker 8, Tetramethyl 1,1′-((glutaroylbis(azanediyl))bis(methylene))bis(3,8-dioxatricyclo[3.2.1.0^2,4]oct-6-ene-6,7-dicarboxylate)] | G″ was negligible in comparison with G′ | – |
| COC(=O)C1=C(C(=O)OC)C2(CNC(=O)CCCC(=O)NCC34C=CC(O3)C(C(=O)OC)=C4C(=O)OC)C=CC1O2 [Linker 7a, Tetramethyl 1,1′-((glutaroylbis(azanediyl))bis(methylene))bis(7-oxabicyclo[2.2.1]hepta-2,5-diene-2,3-dicarboxylate)] | – | > 2.5 wt % |
